Measurements: patent US8846951B2 (AbbVie Inc., priority 2009, dated 2014)
Read-outs that look alike come from different tables or passages of the source.

What was measured:
5HT2B receptors = target: T1, 5HT2B receptors (Homo sapiens, UniProt P41595); assay: Human 5-HT2B functional high throughput screening assay in CHO-K1 cells (calcium flux); type: cell-based; conditions: for EC50: CHO-K1 cells, calcium flux
T1 construct: expressed in transfected cells; host or cells: CHO-K1 cells
How it was run: (§1)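 FLIPR calcium readout, ex 480/em 530 nm, 25 °C, 3 min post-addition; agonist response normalized to serotonin, 4-parameter fit → EC50, Emax (% serotonin). Cells: frozen CHO-K1 stable lines, serum-free overnight, Ca4 dye + 2.5 mM probenecid, 60 min RT dark.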

5HT2C receptors = target: T2, 5HT2C receptors (Homo sapiens, UniProt P28335); assay: Human 5-HT2C functional high throughput screening assay in CHO-K1 cells (calcium flux); type: cell-based; set-up: expressed in transfected cells; host or cells: CHO-K1 cells; conditions: for Emax: CHO-K1, 5-HT2C, maximum functional response as percentage relative to the effect of serotonin; for EC50: CHO-K1 cells, calcium flux
T2 sequence (P28335 33-458): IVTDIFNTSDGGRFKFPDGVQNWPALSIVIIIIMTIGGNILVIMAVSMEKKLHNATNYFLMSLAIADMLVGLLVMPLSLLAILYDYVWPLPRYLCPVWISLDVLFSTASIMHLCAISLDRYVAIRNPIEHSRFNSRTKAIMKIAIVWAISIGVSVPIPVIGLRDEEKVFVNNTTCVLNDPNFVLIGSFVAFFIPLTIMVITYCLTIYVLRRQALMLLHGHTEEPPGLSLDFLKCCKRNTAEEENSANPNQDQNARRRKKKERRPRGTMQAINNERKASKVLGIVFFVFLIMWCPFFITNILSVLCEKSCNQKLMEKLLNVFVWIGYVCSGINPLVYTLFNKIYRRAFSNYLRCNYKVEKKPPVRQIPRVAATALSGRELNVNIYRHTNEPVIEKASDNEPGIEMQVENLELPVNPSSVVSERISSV
How it was run: as §1

[1] = 5-HT2B agonist activity, read-out: EC50
[2] = 5-HT2B, maximum functional response as percentage relative to the effect of serotonin
[3] = 5-HT2C agonist activity, read-out: EC50

T1 sequence (P41595 whole entry): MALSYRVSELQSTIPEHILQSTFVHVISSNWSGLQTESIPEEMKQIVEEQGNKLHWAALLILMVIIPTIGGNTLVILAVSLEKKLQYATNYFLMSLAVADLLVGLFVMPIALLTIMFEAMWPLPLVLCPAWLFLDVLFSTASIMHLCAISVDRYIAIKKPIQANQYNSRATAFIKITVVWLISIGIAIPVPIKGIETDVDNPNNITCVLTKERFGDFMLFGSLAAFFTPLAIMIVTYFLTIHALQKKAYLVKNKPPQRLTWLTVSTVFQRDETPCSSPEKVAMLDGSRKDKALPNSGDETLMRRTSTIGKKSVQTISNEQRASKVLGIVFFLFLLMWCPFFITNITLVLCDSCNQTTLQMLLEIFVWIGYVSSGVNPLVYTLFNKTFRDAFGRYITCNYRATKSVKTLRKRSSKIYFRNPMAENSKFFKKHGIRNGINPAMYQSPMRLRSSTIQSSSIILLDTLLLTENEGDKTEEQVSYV

EC50 (5HT2B receptors; [1]) [nM] | Emax (5HT2B receptors; [2]) | Emax (5HT2C receptors; read-out: Emax) [%] | EC50 (5HT2C receptors; [3]) [nM] | Compound | Emax (5HT2C receptors) [%] | Emax (5HT2B receptors; CHO-K1) [%] | EC50 (5HT2B receptors; EC50, 5-HT2B agonist activity) [nM] | EC50 (5HT2C receptors; EC50, 5-HT2C agonist activity) [nM]
> 10000 | inactive | > 120 | – | COc1cccc(-c2ccc3c(c2)C(=O)NC[C@@H]2CN(C)C[C@@H]32)c1 (relative stereo) [Example 133, Trans-8-(3-methoxyphenyl)-2-methyl-1,2,3,3a,4,5-hexahydrobenzo[e]pyrrolo[3,4-c]azepin-6(10bH)-one] | – | – | – | –
> 10000 | inactive | 110 | 2000 | O=C1NC[C@@H]2CN(Cc3ccccc3)C[C@H]2c2ccc(-c3nnco3)cc21 (relative stereo) [Example 136, Trans-2-benzyl-8-(1,3,4-oxadiazol-2-yl)-1,2,3,3a,4,5-hexahydrobenzo[e]pyrrolo[3,4-c]azepin-6(10bH)-one] | – | – | – | –
> 10000 | inactive | > 120 | 100 | COc1ccccc1-c1ccc2c(c1)C(=O)NC[C@@H]1CN(C)C[C@@H]21 (relative stereo) [Example 137, Trans-8-(2-methoxyphenyl)-2-methyl-1,2,3,3a,4,5-hexahydrobenzo[e]pyrrolo[3,4-c]azepin-6(10bH)-one] | – | – | – | –
> 10000 | inactive | > 120 | 100 | CC(C)c1ccc(-c2ccc3c(c2)C(=O)NC[C@@H]2CN(C)C[C@@H]32)cc1 (relative stereo) [Example 138, Trans-8-(4-isopropylphenyl)-2-methyl-1,2,3,3a,4,5-hexahydrobenzo[e]pyrrolo[3,4-c]azepin-6(10bH)-one] | – | – | – | –
> 10000 | inactive | > 120 | 30 | CCc1ccc(-c2ccc3c(c2)C(=O)NC[C@@H]2CN(C)C[C@@H]32)cc1 (relative stereo) [Example 139, Trans-8-(4-ethylphenyl)-2-methyl-1,2,3,3a,4,5-hexahydrobenzo[e]pyrrolo[3,4-c]azepin-6(10bH)-one] | – | – | – | –
> 10000 | inactive | > 120 | 60 | CN1C[C@H]2CNC(=O)c3cc(-c4ccc(OC(F)(F)F)cc4)ccc3[C@@H]2C1 (relative stereo) [Example 140, Trans-2-methyl-8-(4-(trifluoromethoxy)phenyl)-1,2,3,3a,4,5-hexahydrobenzo[e]pyrrolo[3,4-c]azepin-6(10bH)-one] | – | – | – | –
> 10000 | inactive | > 120 | 600 | Nc1ccc2c(c1)C(=O)NC[C@@H]1CN(Cc3ccccc3)C[C@@H]21 (relative stereo) [Example 141, Trans-8-amino-2-benzyl-1,2,3,3a,4,5-hexahydrobenzo[e]pyrrolo[3,4-c]azepin-6(10bH)-one] | – | – | – | –
> 10000 | inactive | 80 | 2000 | Nc1ccc2c(c1)C(=O)NC[C@@H]1CN(Cc3ccccc3)C[C@H]21 (relative stereo) [Example 142, Cis-8-amino-2-benzyl-1,2,3,3a,4,5-hexahydrobenzo[e]pyrrolo[3,4-c]azepin-6(10bH)-one] | – | – | – | –
– | – | – | – | Nc1ccc2c(c1)C(=O)NC[C@@H]1CNC[C@@H]21 (relative stereo) [Example 144, Trans-8-amino-1,2,3,3a,4,5-hexahydrobenzo[e]pyrrolo[3,4-c]azepin-6(10bH)-one] | > 120 | 60 | 1000 | 100
– | – | – | – | O=C1NC[C@@H]2CNC[C@H]2c2ccc(OCc3cccc(F)c3)cc21 (relative stereo) [Example 146, Trans-8-(3-fluorobenzyloxy)-1,2,3,3a,4,5-hexahydrobenzo[e]pyrrolo[3,4-c]azepin-6(10bH)-one] | > 120 | 15 | 1000 | 0.8
> 10000 | inactive | > 120 | 0.9 | O=C1NC[C@@H]2CNC[C@H]2c2ccc(OCc3ccccc3C(F)(F)F)cc21 (relative stereo) [Example 148, Trans-8-(2-(trifluoromethyl)benzyloxy)-1,2,3,3a,4,5-hexahydrobenzo[e]pyrrolo[3,4-c]azepin-6(10bH)-one] | – | – | – | –
– | – | – | – | O=C1NC[C@@H]2CNC[C@H]2c2ncccc21 (relative stereo) [Example 153, Trans-7,7a,8,9,10,10a-hexahydropyrido[2,3-e]pyrrolo[3,4-c]azepin-5(6H)-one] | > 120 | 30 | > 10000 | 80

Compound | EC50 (5HT2B receptors; [1]) [nM] | Emax (5HT2B receptors; [2]) | Emax (5HT2C receptors; read-out: Emax) [%] | EC50 (5HT2C receptors; [3]) [nM] | Emax (5HT2C receptors) [%] | Emax (5HT2B receptors; CHO-K1) [%] | EC50 (5HT2B receptors; EC50, 5-HT2B agonist activity) [nM] | EC50 (5HT2C receptors; EC50, 5-HT2C agonist activity) [nM]
CC(C)COc1cccc(-c2ccc3c(c2)C(=O)NC[C@@H]2CN(C)C[C@@H]32)c1 (relative stereo) [Example 134, Trans-8-(3-isobutoxyphenyl)-2-methyl-1,2,3,3a,4,5-hexahydrobenzo[e]pyrrolo[3,4-c]azepin-6(10bH)-one] | > 10000 | inactive | > 120 | 60 | – | – | – | –
COc1ccc2c(c1)C(=O)NC[C@@H]1CNC[C@H]21 (relative stereo) [Example 135, Cis-8-methoxy-1,2,3,3a,4,5-hexahydrobenzo[e]pyrrolo[3,4-c]azepin-6(10bH)-one] | > 10000 | inactive | – | 800 | > 120 | – | – | –
CN1C[C@H]2CNC(=O)c3cc(-c4cccnc4)ccc3[C@@H]2C1 (relative stereo) [Example 143, Trans-2-methyl-8-(pyridin-3-yl)-1,2,3,3a,4,5-hexahydrobenzo[e]pyrrolo[3,4-c]azepin-6(10bH)-one] | > 10000 | inactive | – | 300 | > 120 | – | – | –
Nc1ccc2c(c1)C(=O)NC[C@@H]1CNC[C@H]21 (relative stereo) [Example 145, Cis-8-amino-1,2,3,3a,4,5-hexahydrobenzo[e]pyrrolo[3,4-c]azepin-6(10bH)-one] | – | inactive | – | – | 15 | – | > 10000 | 3000
O=C1NC[C@@H]2CNC[C@H]2c2ccc(OCc3ccccc3F)cc21 (relative stereo) [Example 147, Trans-8-(2-fluorobenzyloxy)-1,2,3,3a,4,5-hexahydrobenzo[e]pyrrolo[3,4-c]azepin-6(10bH)-one] | – | inactive | – | – | > 120 | – | > 10000 | –
O=C1NC[C@@H]2CN(Cc3ccccc3)C[C@H]2c2ncccc21 (relative stereo) [Example 151, Trans-9-benzyl-7,7a,8,9,10,10a-hexahydropyrido[2,3-e]pyrrolo[3,4-c]azepin-5(6H)-one] | – | inactive | – | – | > 120 | – | > 10000 | 70
O=C1NC[C@@H]2CN(Cc3ccccc3)C[C@H]2c2cnccc21 (relative stereo) [Example 152, Trans-2-benzyl-1,2,3,3a,4,5-hexahydropyrido[3,4-e]pyrrolo[3,4-c]azepin-6(10bH)-one] | > 10000 | inactive | – | 2000 | 50 | – | – | –
O=C1NC[C@@H]2CN(Cc3ccccc3)C[C@H]2c2cccnc21 (relative stereo) [Example 154, Trans-2-benzyl-1,2,3,3a,4,5-hexahydropyrido[3,2-e]pyrrolo[3,4-c]azepin-6(10bH)-one] | > 10000 | inactive | – | 2000 | 90 | – | – | –
